Source: patent US20260226048A1, “MULTI-CYCLIC IRAK AND FLT3 INHIBITING COMPOUNDS AND USES THEREOF” (CHILDREN'S HOSPITAL MEDICAL CENTER, priority 2023, published 2026)
Read-outs that look alike come from different tables or passages of the source.

Tests used:
[1] = target: T1, IRAK1 (Homo sapiens, UniProt P51617); experiment: RBC HotSpot Kinase Assay, IRAK1; type: biochemical; settings: isolated kinase enzyme, 33P-ATP, P81 filter-binding
T1 construct: purchased Reaction Biology (RBC HotSpot)
How it was run: (§1)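 Reactions ran in 20 mM Hepes (pH 7.5) containing 10 mM MgCl2, 1 mM EGTA, 0.1 mM Na3VO4, 2 mM DTT, 0.02 mg/ml BSA, 0.01% Brij35 and 1% DMSO, plus required cofactors. Functional activity readout on the expressible enzyme form, sometimes C-terminally truncated or lacking receptor regulatory regions.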

[2] = test system: MOLM14 D835Y cells; experiment: MOLM14 D835Y cell viability assay (Cell Titer Glo); type: cell-based; settings: Homo sapiens, MOLM-14, 48 h, read-out: MOLM14 D835Y IC50
How it was run: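 Luminescent ATP read-out (CellTiter-Glo, 15 min room temperature) taken 48 h after compound addition. Cells were MOLM14 carrying FLT3 D835Y or F691L mutations, plated at 1000 cells per well.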

[3] = test system: MOLM14 F691L cells; experiment: MOLM14 F691L cell viability assay (Cell Titer Glo); type: cell-based; settings: Homo sapiens, read-out: MOLM14 F691L IC50
Experimental: Both cell lines have activated FLT3 receptors, each of which carry additional resistance mutations in the kinase domain (D835Y and F691L, respectively).
For viability/cytotoxicity assessments, cells were seeded into 1536-well white polystyrene tissue culture-treated Greiner plates using a Multidrop Combi dispenser (ThermoFisher), in final volume 5 μL of growth media per well, at a density of 1000 cells per well. […] Plates were incubated for 48 hours at standard incubator conditions covered by a stainless steel gasketed lid to prevent evaporation. 48 hours post compound addition, 3 μL of Cell Titer Glo (Promega) were added to each well and plates were incubated at room temperature for 15 minutes with the stainless-steel lid in place. Luminescence readings were taken using a Viewlux imager (PerkinElmer) with a 2 second exposure time per plate.

[4] = target: T2, IRAK4 (Homo sapiens, UniProt Q9NWZ3); experiment: RBC HotSpot Kinase Assay, IRAK4; type: biochemical; design: purchased Reaction Biology (RBC HotSpot); settings: isolated kinase enzyme, 33P-ATP, P81 filter-binding
T2 sequence (Q9NWZ3 1-460): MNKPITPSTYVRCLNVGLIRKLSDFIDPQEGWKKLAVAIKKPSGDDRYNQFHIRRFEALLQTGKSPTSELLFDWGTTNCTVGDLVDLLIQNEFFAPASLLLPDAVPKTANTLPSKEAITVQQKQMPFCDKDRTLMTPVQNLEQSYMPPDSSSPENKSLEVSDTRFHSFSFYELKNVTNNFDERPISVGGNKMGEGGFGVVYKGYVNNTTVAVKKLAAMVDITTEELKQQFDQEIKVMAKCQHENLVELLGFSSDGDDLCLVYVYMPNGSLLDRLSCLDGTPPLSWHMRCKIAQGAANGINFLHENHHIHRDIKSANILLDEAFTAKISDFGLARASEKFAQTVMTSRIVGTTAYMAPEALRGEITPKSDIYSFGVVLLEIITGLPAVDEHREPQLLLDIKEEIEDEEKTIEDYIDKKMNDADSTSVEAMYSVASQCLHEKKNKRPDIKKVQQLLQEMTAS
How it was run: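 Radiometric filter-binding activity assay with isolated recombinant kinase (construct may be truncated or catalytic domain only) in 20 mM Hepes pH 7.5, 10 mM MgCl2, 1 mM EGTA, 2 mM DTT, 1% DMSO. Compound preincubated 20 min with kinase/substrate; reaction started with 33P-ATP, run 2 h at room temperature.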

[5] = target: T3, FLT3 (Homo sapiens, UniProt P36888); experiment: RBC HotSpot Kinase Assay, FLT3; type: biochemical; design: purchased Reaction Biology (RBC HotSpot); settings: isolated kinase enzyme, 33P-ATP, P81 filter-binding
T3 sequence (P36888 27-993): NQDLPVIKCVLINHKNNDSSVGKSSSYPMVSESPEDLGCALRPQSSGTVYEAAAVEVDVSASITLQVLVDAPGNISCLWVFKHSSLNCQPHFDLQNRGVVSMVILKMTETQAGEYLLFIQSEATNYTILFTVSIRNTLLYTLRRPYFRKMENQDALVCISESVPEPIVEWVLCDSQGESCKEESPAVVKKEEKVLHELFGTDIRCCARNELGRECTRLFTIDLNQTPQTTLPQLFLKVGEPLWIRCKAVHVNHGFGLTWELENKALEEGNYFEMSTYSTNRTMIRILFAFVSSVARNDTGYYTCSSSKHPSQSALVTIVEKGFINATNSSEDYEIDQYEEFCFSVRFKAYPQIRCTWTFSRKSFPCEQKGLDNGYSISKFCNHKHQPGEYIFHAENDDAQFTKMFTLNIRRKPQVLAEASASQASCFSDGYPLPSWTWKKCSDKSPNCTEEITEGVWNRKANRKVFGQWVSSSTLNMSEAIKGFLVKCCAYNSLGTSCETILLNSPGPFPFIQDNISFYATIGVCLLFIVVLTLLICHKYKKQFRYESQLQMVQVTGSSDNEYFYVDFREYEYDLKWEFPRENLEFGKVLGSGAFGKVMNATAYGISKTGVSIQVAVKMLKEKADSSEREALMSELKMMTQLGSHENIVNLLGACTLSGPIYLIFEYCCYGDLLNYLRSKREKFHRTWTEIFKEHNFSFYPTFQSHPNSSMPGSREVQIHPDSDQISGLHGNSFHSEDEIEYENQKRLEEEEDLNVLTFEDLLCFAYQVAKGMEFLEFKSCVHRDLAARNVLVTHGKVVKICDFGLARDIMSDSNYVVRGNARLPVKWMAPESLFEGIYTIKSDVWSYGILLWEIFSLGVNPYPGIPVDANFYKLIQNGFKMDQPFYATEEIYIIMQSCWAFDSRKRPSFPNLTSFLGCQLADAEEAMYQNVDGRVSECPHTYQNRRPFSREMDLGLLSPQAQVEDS
How it was run: as §1

[6] = cell viability, Cell Titer Glo, 48 hours
[7] = MOLM-14, cell viability, Cell Titer Glo, 48 hours

T1 sequence (P51617 whole entry): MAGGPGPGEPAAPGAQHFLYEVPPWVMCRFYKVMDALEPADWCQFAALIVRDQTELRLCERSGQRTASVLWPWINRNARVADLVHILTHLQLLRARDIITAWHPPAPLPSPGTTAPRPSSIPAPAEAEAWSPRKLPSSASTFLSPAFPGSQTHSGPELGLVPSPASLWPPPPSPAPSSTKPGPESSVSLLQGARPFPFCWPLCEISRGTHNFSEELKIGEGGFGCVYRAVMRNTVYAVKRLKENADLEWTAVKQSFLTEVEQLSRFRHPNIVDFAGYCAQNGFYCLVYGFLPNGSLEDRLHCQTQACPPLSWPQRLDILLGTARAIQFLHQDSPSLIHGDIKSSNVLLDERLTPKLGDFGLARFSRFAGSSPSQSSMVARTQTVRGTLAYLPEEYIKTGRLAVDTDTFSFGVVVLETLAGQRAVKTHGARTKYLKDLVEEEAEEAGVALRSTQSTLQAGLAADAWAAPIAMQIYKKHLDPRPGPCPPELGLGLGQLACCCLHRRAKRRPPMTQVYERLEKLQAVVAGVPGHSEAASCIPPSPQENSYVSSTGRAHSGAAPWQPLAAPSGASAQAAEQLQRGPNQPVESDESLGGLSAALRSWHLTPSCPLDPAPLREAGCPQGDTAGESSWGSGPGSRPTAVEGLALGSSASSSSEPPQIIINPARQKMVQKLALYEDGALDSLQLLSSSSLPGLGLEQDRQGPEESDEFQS

SMILES: COc1cc2ncc(-c3nc(N[C@@H]4CCCNC4)ncc3F)n2nc1C1CCCC1 [Compound 62a, (R)-4-(6-cyclopentyl-7-methoxyimidazo[1,2-b]pyridazin-3-yl)-5-fluoro-N-(piperidin-3-yl)pyrimidin-2-amine]
- IC50 [1]: 0.6 nM
- IC50 [2, 6]: 1 nM
- IC50 [3, 7]: 9 nM
- IC50 [4]: < 0.5 nM
- IC50 [5]: < 0.5 nM

SMILES: COc1cc2ncc(-c3nc(N[C@H]4CNCC[C@@H]4F)ncc3F)n2nc1C1CCCC1 [Compound 63a, 4-(6-cyclopentyl-7-methoxyimidazo[1,2-b]pyridazin-3-yl)-5-fluoro-N-((3S,4S)-4-fluoropiperidin-3-yl)pyrimidin-2-amine]
- IC50 [1]: < 0.5 nM
- IC50 [2, 6]: 2 nM
- IC50 [3, 7]: 13 nM
- IC50 [4]: < 0.5 nM
- IC50 [5]: < 0.5 nM

SMILES: COc1cc2ncc(-c3nc(N[C@H]4CNC[C@@H]4F)ncc3F)n2nc1C1CCCCC1 [Compound 64a, 4-(6-cyclohexyl-7-methoxyimidazo[1,2-b]pyridazin-3-yl)-5-fluoro-N-((3S,4S)-4-fluoropyrrolidin-3-yl)pyrimidin-2-amine]
- IC50 [1]: < 0.5 nM
- IC50 [2, 6]: 6 nM
- IC50 [3, 7]: 57 nM
- IC50 [4]: < 0.5 nM
- IC50 [5]: < 0.5 nM

SMILES: COc1cc2ncc(-c3nc(N[C@@H]4CCCNC4)ncc3F)n2nc1C1CCCCC1 [Compound 65a, (R)-4-(6-cyclohexyl-7-methoxyimidazo[1,2-b]pyridazin-3-yl)-5-fluoro-N-(piperidin-3-yl)pyrimidin-2-amine]
- IC50 [1]: < 0.5 nM
- IC50 [2, 6]: 3 nM
- IC50 [3, 7]: 18 nM
- IC50 [4]: < 0.5 nM
- IC50 [5]: < 0.5 nM

SMILES: COc1cc2ncc(-c3nc(N[C@H]4CNCC[C@@H]4F)ncc3F)n2nc1C1CCCCC1 [Compound 66a, 4-(6-cyclohexyl-7-methoxyimidazo[1,2-b]pyridazin-3-yl)-5-fluoro-N-((3S,4S)-4-fluoropiperidin-3-yl)pyrimidin-2-amine]
- IC50 [1]: < 0.5 nM
- IC50 [2]: 4 nM
- IC50 ([3]; MOLM-14, 48 h): 28 nM
- IC50 [4]: 0.6 nM
- IC50 [5]: < 0.5 nM

SMILES: COc1cc2ncc(-c3nc(N[C@H]4CNC[C@@H]4F)ncc3F)n2nc1C12CC(C1)C2 [Compound 67a, 4-(6-(bicyclo[1.1.1]pentan-1-yl)-7-methoxyimidazo[1,2-b]pyridazin-3-yl)-5-fluoro-N-((3S,4S)-4-fluoropyrrolidin-3-yl)pyrimidin-2-amine]
- IC50 [1]: 1 nM
- IC50 [2, 6]: 9 nM
- IC50 [3, 7]: 57 nM
- IC50 [4]: 0.9 nM
- IC50 [5]: < 0.5 nM

SMILES: COc1cc2ncc(-c3nc(N[C@H]4CNCC[C@@H]4F)ncc3F)n2nc1C12CC(C1)C2 [Compound 69a, 4-(6-(bicyclo[1.1.1]pentan-1-yl)-7-methoxyimidazo[1,2-b]pyridazin-3-yl)-5-fluoro-N-((3S,4S)-4-fluoropiperidin-3-yl)pyrimidin-2-amine]
- IC50 [1]: 0.9 nM
- IC50 [2, 6]: 3 nM
- IC50 [3, 7]: 25 nM
- IC50 [4]: 0.7 nM
- IC50 [5]: < 0.5 nM

SMILES: COc1cc2ncc(-c3ccnc(N[C@H]4CNC[C@@H]4F)n3)n2nc1C1CC2(CCC2)C1 [Compound 75a, N-((3S,4S)-4-fluoropyrrolidin-3-yl)-4-(7-methoxy-6-(spiro[3.3]heptan-2-yl)imidazo[1,2-b]pyridazin-3-yl)pyrimidin-2-amine]
- IC50 [1]: 102 nM
- IC50 [2, 6]: 63 nM
- IC50 [3, 7]: 634 nM
- IC50 [4]: 6 nM
- IC50 [5]: < 0.5 nM

SMILES: COc1cc2ncc(-c3ccnc(N[C@@H]4CCCNC4)n3)n2nc1C1CC2(CCC2)C1 [Compound 76a, (R)-4-(7-methoxy-6-(spiro[3.3]heptan-2-yl)imidazo[1,2-b]pyridazin-3-yl)-N-(piperidin-3-yl)pyrimidin-2-amine]
- IC50 [1]: 37 nM
- IC50 [2, 6]: 101 nM
- IC50 [3, 7]: 1130 nM
- IC50 [4]: 21 nM
- IC50 [5]: < 0.5 nM

SMILES: COc1cc2ncc(-c3ccnc(N[C@H]4CNC[C@@H]4F)n3)n2nc1C1CCC1 [Compound 77a, 4-(6-cyclobutyl-7-methoxyimidazo[1,2-b]pyridazin-3-yl)-N-((3S,4S)-4-fluoropyrrolidin-3-yl)pyrimidin-2-amine]
- IC50 [1]: 12 nM
- IC50 [2, 6]: 16 nM
- IC50 [3, 7]: 142 nM
- IC50 [4]: 1 nM
- IC50 [5]: < 0.5 nM
